Test results taken from patent US9695481B2, “Polynucleotides comprising a reporter sequence operatively linked to a regulatory element” (UNIVERSITEIT LEIDEN, priority 2010, dated 2017).
“Also recorded” adds a separate entry of the source. Structures can show the parent of a compound that is named as a salt. Where two headings read alike, the source gives them in different places.

Experiments:
[1] = tested on: Bscl2-GFP mES reporter cells; test: Bscl2-GFP genotoxicity reporter; settings: for Bscl2-GFP reporter induction: 24 h exposure
[2] = tested on: Srxn1-GFP mES reporter cells; test: Srxn1-GFP oxidative stress reporter; settings: for Srxn1-GFP reporter induction: 24 h exposure, flow cytometry
[3] = tested on: mouse ES cell lines containing a DsRed fluorescent reporter; settings: cited from earlier work
[4] = Genotoxicity profile; data extracted from Kirkland et al. 2008; cited from earlier work
[5] = cited from earlier work
Salmonella = settings: cited from earlier work
[6] = tested on: Bscl2-GFP and Srxn1-GFP mES reporter cells
[7] = tested on: mouse ES cell lines containing a DsRed fluorescent reporter
[8] = tested on: Bscl2-GFP mES reporter cells
[9] = tested on: Srxn1-GFP mES reporter cells
[10] = Genotoxicity profile, data extracted from Kirkland et al. 2008
[11] = from which GFP reporter is induced

For `C[C@@]1(CO)[C@H](O)CC[C@@]2(C)[C@H]1CC[C@H]1C[C@@H]3C[C@@]12CC[C@]3(O)CO` [Aph, aphidicolin], the Bscl2-GFP reporter induction ([1]; flow cytometry) was “significant induction of GFP expression” and the Srxn1-GFP reporter induction [2] was “slight reporter activation; also recorded: slightly activated”.

In the case of `[Cl][Cd][Cl]` [Cadmium Chloride], the “mES DsRed reporters” value ([3]; Hendriks et al. 2011) is listed as “Pos”, the In vitro genotoxicity [4] is listed as “Pos” and the In vivo genotoxicity [5, 10] is listed as “Pos”. The Srxn1-GFP reporter induction [2] was “Specific activation; also recorded: highly responsive”, the Srxn1-GFP reporter induction ([2]; listed as CdCl2) was “strong, concentration-dependent increase in expression of the GFP reporter” and the Ames test (Salmonella) was “Pos”. The “Bscl2-GFP/Srxn1-GFP GFP Induction” value [6] was “Pos. (considered positive when exposure to at least two different concentrations of a compound resulted in >1.5 fold induction of GFP expression)” and the “Bscl2-GFP/Srxn1-GFP Prim. toxic properties” value [6, 11] was “Pro-oxidant”.

In the case of `N.N.[Cl][Pt][Cl]` [Cisplatin], the DsRed reporter expression/activation [7] is given as “clear induction of DsRed expression”, the “mRNA expression of Ephx1-DsRed reporter and endogenous Ephx1 gene” value ([7]; quantitative RT-PCR, up to 24 h) is given as “transcriptionally activated” and the “mES DsRed reporters” value ([3]; Hendriks et al. 2011) is given as “Pos”. The “time at which Bscl2-GFP expression became visible” value ([1]; 5 uM CisPt, live cell imaging) was 12 h, the “Srxn1-GFP reporter induction, live cell imaging” value ([2]; 5 uM CisPt or 100 uM DEM, up to 24 h) was “hardly responsive” and the Srxn1-GFP reporter induction ([2]; listed as CisPt) was “also induced by the genotoxic compounds, albeit to a lesser extent; also recorded: slightly activated”. For the same compound, the “Srxn1-GFP reporter induction (mRNA)” value ([2]; quantitative RT-PCR, 8 or 16 h) was “somewhat responsive”, the “Bscl2-GFP/Srxn1-GFP GFP Induction” value [6] was “Pos. (considered positive when exposure to at least two different concentrations of a compound resulted in >1.5 fold induction of GFP expression)” and the “GFP expression in Srxn1, Bscl2 and Btg2 GFP reporter cell lines” value (“GFP expression in Srxn1” for short) ([6]; BAC TransgeneOmics lines, 30 hrs exposure, flow cytometry) was “increased”.

With `O=S(=O)([O-])[O-].[Cu+2]` [Copper sulfate] the Bscl2-GFP reporter induction [8] was “not induced”, the Srxn1-GFP reporter induction [9] was “strong, concentration-dependent increase in expression of the GFP reporter” and the “Bscl2-GFP/Srxn1-GFP GFP Induction” value [6] was “Pos. (key: Pos.: considered positive when exposure to at least two different concentrations of a compound resulted in >1.5 fold induction of GFP expression)”. For the same compound, the “Bscl2-GFP/Srxn1-GFP Prim. toxic properties” value [6] was “Pro-oxidant” and the “GFP expression in Srxn1” value [6] was “increased”.

In the case of `CCOC(=O)/C=C\C(=O)OCC` [Diethyl maleate], the DsRed reporter expression/activation [7] is given as “clear induction of DsRed expression”, the “Srxn1-GFP reporter induction (mRNA)” value [9] is given as “highly induced” and the “mES DsRed reporters” value ([3]; Hendriks et al. 2011) is given as “Pos”. For the same compound, the “exposure time after which Srxn1-GFP expression reached a plateau” value ([2]; 100 uM DEM, live cell imaging) was 24 h, the “exposure time after which Srxn1-GFP expression was clearly detectable” value ([2]; 100 uM DEM, live cell imaging) was 8 h and the “Bscl2-GFP/Srxn1-GFP Prim. toxic properties” value [6] was “Pro-oxidant”. For the same compound, the “GFP expression in Srxn1” value [6] was “increased”.

For `COc1cccc2c1C(=O)c1c(O)c3c(c(O)c1C2=O)C[C@@](O)(C(=O)CO)C[C@@H]3O[C@H]1C[C@H](N)[C@H](O)[C@H](C)O1` [Doxorubicin], the Srxn1-GFP reporter induction [9] is given as “also induced by the genotoxic compounds, albeit to a lesser extent”, the “mES DsRed reporters” value ([3]; Hendriks et al. 2011) is given as “Pos” and the In vitro genotoxicity [4] is given as “Pos”. The In vivo genotoxicity [5, 10] was “Pos”, the Ames test (Salmonella; [10]) was “Pos” and the “Bscl2-GFP/Srxn1-GFP Prim. toxic properties” value [6] was “Genotoxin”. For the same compound, the “GFP expression in Srxn1” value [6] was “increased”.

For `COc1cc([C@@H]2c3cc4c(cc3[C@@H](O[C@@H]3O[C@@H]5CO[C@@H](C)O[C@H]5[C@H](O)[C@H]3O)[C@H]3COC(=O)[C@H]23)OCO4)cc(OC)c1O` [Etoposide], the Srxn1-GFP reporter induction [9] is given as “also induced by the genotoxic compounds, albeit to a lesser extent”, the In vitro genotoxicity [4] is given as “Pos” and the In vivo genotoxicity [5, 10] is given as “Pos”. The “Bscl2-GFP/Srxn1-GFP Prim. toxic properties” value [6] was “Genotoxin”.

With `NC(=O)NO` [HU, Hydroxyurea] the Bscl2-GFP reporter induction [8] was “significant induction of GFP expression” and the Srxn1-GFP reporter induction [9] was “slight reporter activation”.

For `COS(C)(=O)=O` [MMS, methyl methanesulphonate], the DsRed reporter expression/activation [7] is given as “clear induction of DsRed expression”, the “mES DsRed reporters” value [3] is given as “Pos” and the In vivo genotoxicity ([5]; in vivo) is given as “Pos”. For the same compound, the Ames test (Salmonella; [10]) was “Pos”, the “Bscl2-GFP/Srxn1-GFP GFP Induction” value [6] was “Pos. (considered positive when exposure to at least two different concentrations of a compound resulted in >1.5 fold induction of GFP expression)” and the “Bscl2-GFP/Srxn1-GFP Prim. toxic properties” value [6, 11] was “Pro-oxidant”.

With `CC(=O)N[C@@H](CS)C(=O)O` [NAC, N-acetyl cysteine] the “effect on Srxn1-GFP reporter activation by pro-oxidants” value ([2]; co-incubation with DEM, CuSO4, NaAsO2, CdCl2 or MMS, 24 h) was “completely inhibited activation of the reporter”, the “effect on Srxn1-GFP reporter activation by CisPt” value ([2]; data not shown) was “significantly reduced reporter activation” and the “effect of scavenger alone on cell viability and reporter activity” value ([6]; data not shown) was “did not affect cell viability or reporter activity”.

In the case of `O=[As]O` [Sodium arsenite], the “mES DsRed reporters” value ([3]; Hendriks et al. 2011) is listed as “Pos”, the Bscl2-GFP reporter induction ([1]; flow cytometry) is listed as “hardly responded” and the Bscl2-GFP reporter induction ([1]; flow cytometry, listed as NaAsO2) is listed as “not induced”. The In vitro genotoxicity [4] was “Pos”, the In vivo genotoxicity [5, 10] was “Pos” and the Srxn1-GFP reporter induction [2] was “Specific activation; also recorded: highly responsive”. For the same compound, the Srxn1-GFP reporter induction ([2]; listed as NaAsO2) was “strong, concentration-dependent increase in expression of the GFP reporter; also recorded: preferentially induced”, the Ames test (Salmonella; [10]) was “Neg” and the “Bscl2-GFP/Srxn1-GFP GFP Induction” value [6] was “Pos. (considered positive when exposure to at least two different concentrations of a compound resulted in >1.5 fold induction of GFP expression)”. For the same compound, the “Bscl2-GFP/Srxn1-GFP Prim. toxic properties” value [6, 11] was “Pro-oxidant”.

For `CC(C)(C)c1cc(O)ccc1O` [Tert-butylhydroquinone], the “mES DsRed reporters” value ([3]; Hendriks et al. 2011) is given as “Pos”, the In vitro genotoxicity [4] is given as “Pos” and the In vivo genotoxicity [5, 10] is given as “Neg”. The Ames test (Salmonella; [10]) was “Neg” and the “Bscl2-GFP/Srxn1-GFP Prim. toxic properties” value [6] was “Pro-oxidant”.

In the case of `CCCCC(CC)COP(=O)(OCC(CC)CCCC)OCC(CC)CCCC` (stereo not drawn) [Tris(2-ethylhexyl)phosphate], the “mES DsRed reporters” value ([3]; Hendriks et al. 2011) is given as “Neg”, the In vitro genotoxicity [4] is given as “Neg” and the In vivo genotoxicity [5, 10] is given as “Neg”. The Ames test (Salmonella; [10]) was “Neg” and the “Bscl2-GFP/Srxn1-GFP GFP Induction” value [6] was “Neg”.

With `CN[C@@H]1C[C@H]2O[C@@](C)([C@@H]1OC)n1c3ccccc3c3c4c(c5c6ccccc6n2c5c31)C(=O)N[C@@H]4O` [UCN-01] the “effect on Bscl2-GFP reporter activation by CisPt or Aph” value ([1]; 10 uM CisPt or 1.5 uM Aph, 24 h, flow cytometry) was “almost completely be repressed”.

With `Cc1cccc(Nc2cc(Cl)nc(SCC(=O)O)n2)c1C` [Wyeth-14,643] the DsRed reporter expression/activation [7] was “did not induce any reporter activation”.

For `O=P1(N(CCCl)CCCl)NCCCO1` (stereo not drawn) [cyclophosphamide], the “survival of Bscl2-GFP reporter cells after S9-dependent activation” value [8] was “reduced survival” and the “Bscl2-GFP reporter induction with metabolic activation” value ([8]; mouse) was “induced expression of the Bscl2-GFP reporter only when incubated in the presence of rat S9 mix”.

In the case of `CC/C(=C(/CC)c1ccc(O)cc1)c1ccc(O)cc1` [diethylstilbestrol], the DsRed reporter expression/activation [7] is reported as “did not induce any reporter activation”.

With `Cc1c2ccccc2c(C)c2c1ccc1ccccc12` [dimethylbenz(a)antracene] the “Bscl2-GFP reporter induction with metabolic activation” value ([1]; 3 h with/without S9 rat liver extract, GFP after 24 h, flow cytometry) was “induced expression of the Bscl2-GFP reporter only when incubated in the presence of rat S9 mix” and the “survival of Bscl2-GFP reporter cells after S9-dependent activation” value ([1]; fraction of intact cells, flow cytometry) was “reduced survival”.

In the case of `Nc1ccccc1C(=O)O` [o-anthranilic acid], the “mES DsRed reporters” value ([3]; Hendriks et al. 2011) is given as “Pos”, the In vitro genotoxicity [4] is given as “Pos” and the In vivo genotoxicity [5, 10] is given as “Neg”. The Ames test (Salmonella; [10]) was “Neg” and the “Bscl2-GFP/Srxn1-GFP GFP Induction” value [6] was “Neg”.

In the case of Mitomycin C, the Srxn1-GFP reporter induction [9] is reported as “also induced by the genotoxic compounds, albeit to a lesser extent”, the “Bscl2-GFP/Srxn1-GFP GFP Induction” value [6] is reported as “Pos. (key: Pos.: considered positive when exposure to at least two different concentrations of a compound resulted in >1.5 fold induction of GFP expression)” and the “Bscl2-GFP/Srxn1-GFP Prim. toxic properties” value [6] is reported as “Genotoxin”. The “GFP expression in Srxn1” value [6] was “increased”.

In the case of aflatoxin B1, the “Bscl2-GFP reporter induction with metabolic activation” value [1] is reported as “induced expression of the Bscl2-GFP reporter only when incubated in the presence of rat S9 mix”.
